Experimental data: the NIST ThermoML archive (doi:10.1016/j.jct.2004.09.021)

What was measured:
[1] = refractive index (Na D-line) (dimensionless); xn = mol fraction of the nth substance listed; details: 101 kPa, Liquid
[2] = xn = mol fraction of the nth substance listed; details: 101 kPa, Liquid

COc1ccccc1 [anisole] + CCCCCCC
Details | mass density, 293.15 K [kg/m3] | mass density, 298.15 K [kg/m3] | mass density, 303.15 K [kg/m3] | refractive index, 293.15 K | refractive index, 298.15 K | refractive index, 303.15 K | viscosity, 293.15 K [mPa·s] | viscosity, 298.15 K [mPa·s] | viscosity, 303.15 K [mPa·s]
[1], x1 = 0.1007 | – | – | – | 1.3975 | 1.3954 | 1.3924 | – | – | –
[1], x1 = 0.21 | – | – | – | 1.4087 | 1.4064 | 1.4036 | – | – | –
[1], x1 = 0.31 | – | – | – | 1.4189 | 1.4167 | 1.414 | – | – | –
[1], x1 = 0.405 | – | – | – | 1.4294 | 1.4272 | 1.4248 | – | – | –
[1], x1 = 0.4985 | – | – | – | 1.4407 | 1.4385 | 1.4362 | – | – | –
[1], x1 = 0.583 | – | – | – | 1.4516 | 1.4495 | 1.4474 | – | – | –
[1], x1 = 0.6989 | – | – | – | 1.4683 | 1.466 | 1.464 | – | – | –
[1], x1 = 0.792 | – | – | – | 1.4826 | 1.4802 | 1.4782 | – | – | –
[1], x1 = 0.8941 | – | – | – | 1.499 | 1.4966 | 1.4947 | – | – | –
[1], x1 = 1 | – | – | – | 1.5161 | 1.5141 | 1.5129 | – | – | –
[2], x1 = 0.1002 | 707.25 | 702.96 | 698.59 | – | – | – | 0.4315 | 0.4121 | 0.3918
[2], x1 = 0.2002 | 731.96 | 727.61 | 723.18 | – | – | – | 0.4541 | 0.434 | 0.4135
[2], x1 = 0.2987 | 757.78 | 753.37 | 748.88 | – | – | – | 0.4775 | 0.4581 | 0.4356
[2], x1 = 0.3994 | 785.83 | 781.36 | 776.8 | – | – | – | 0.5184 | 0.4896 | 0.4639
[2], x1 = 0.4996 | 815.43 | 810.9 | 806.29 | – | – | – | 0.5675 | 0.5347 | 0.5064
[2], x1 = 0.5958 | 845.62 | 841.04 | 836.39 | – | – | – | 0.6285 | 0.5911 | 0.5603
[2], x1 = 0.6993 | 880.28 | 875.65 | 870.94 | – | – | – | 0.7129 | 0.6692 | 0.6322
[2], x1 = 0.7981 | 915.67 | 911.07 | 906.4 | – | – | – | 0.8105 | 0.7613 | 0.7161
[2], x1 = 0.8991 | 953.76 | 949.15 | 944.46 | – | – | – | 0.9337 | 0.8767 | 0.8197
[2], x1 = 1 | 993.81 | 989.15 | 984.42 | – | – | – | 1.085 | 1.017 | 0.9285

COc1ccccc1 [anisole] + CCCCCCCCC
Details | mass density, 293.15 K [kg/m3] | mass density, 298.15 K [kg/m3] | mass density, 303.15 K [kg/m3] | refractive index, 293.15 K | refractive index, 298.15 K | refractive index, 303.15 K | viscosity, 293.15 K [mPa·s] | viscosity, 298.15 K [mPa·s] | viscosity, 303.15 K [mPa·s]
[1], x1 = 0.116 | – | – | – | 1.4119 | 1.4103 | 1.4074 | – | – | –
[1], x1 = 0.218 | – | – | – | 1.4191 | 1.4173 | 1.4148 | – | – | –
[1], x1 = 0.32 | – | – | – | 1.4276 | 1.4257 | 1.4234 | – | – | –
[1], x1 = 0.413 | – | – | – | 1.4361 | 1.4343 | 1.432 | – | – | –
[1], x1 = 0.4989 | – | – | – | 1.4448 | 1.443 | 1.4409 | – | – | –
[1], x1 = 0.5907 | – | – | – | 1.4553 | 1.4534 | 1.4515 | – | – | –
[1], x1 = 0.673 | – | – | – | 1.466 | 1.4639 | 1.4619 | – | – | –
[1], x1 = 0.782 | – | – | – | 1.4811 | 1.4789 | 1.4771 | – | – | –
[1], x1 = 0.8965 | – | – | – | 1.4984 | 1.4961 | 1.4944 | – | – | –
[1], x1 = 1 | – | – | – | 1.5161 | 1.5141 | 1.5129 | – | – | –
[2], x1 = 0.1003 | 737.55 | 730.48 | 726.35 | – | – | – | 0.7027 | 0.6663 | 0.6209
[2], x1 = 0.1991 | 752.72 | 748.56 | 744.37 | – | – | – | 0.6975 | 0.6588 | 0.6172
[2], x1 = 0.2995 | 776.9 | 768.71 | 764.41 | – | – | – | 0.7043 | 0.662 | 0.6139
[2], x1 = 0.3997 | 795.17 | 790.9 | 786.51 | – | – | – | 0.7127 | 0.6693 | 0.6315
[2], x1 = 0.4998 | 819.75 | 815.37 | 810.88 | – | – | – | 0.7381 | 0.6982 | 0.6485
[2], x1 = 0.5907 | 844.35 | 839.87 | 835.33 | – | – | – | 0.7718 | 0.7299 | 0.6758
[2], x1 = 0.6975 | 876.64 | 872.08 | 867.39 | – | – | – | 0.8298 | 0.7801 | 0.7158
[2], x1 = 0.8008 | 911.95 | 907.24 | 902.38 | – | – | – | 0.9049 | 0.8452 | 0.7771
[2], x1 = 0.898 | 949.42 | 944.51 | 939.7 | – | – | – | 0.9871 | 0.9159 | 0.8365
[2], x1 = 1 | 993.81 | 989.15 | 984.42 | – | – | – | 1.085 | 1.017 | 0.9285
